Results as given in patent US7923578B2, “Method of manufacturing 3-(4-hydroxyphenyl)propanoic acid amide, its application in the manufacture of anti-aging compositions and anti-aging composition” (Instytut Chemii Bioorganicznej Pan, priority 2005, dated 2011).
“And” between values parts separate entries of the source, which are not always exact repeats. Equal values may be shown once.

Legend:
[1] = test system: late passage cells; experiment: Cell survival of late passage (senescent) cells, Coulter counting; type: cell-based, human
Protocol: Effects on late passage cells—Cytoskeletal organization: Late passage cells with more than 75% lifespan were treated with different doses of phloretamide in order to see if this treatment could revert any of the age related changes. […] Effect of 3-p-hydroxyphenyl-propionic acid amide on the morphology of late passage cells after 7 and 14 days—Morphology of senescent cells: Late passage human skin fibroblasts (about 75% life span completed) were treated with various doses of phloretamide to see whether this treatment could reverse age-related alterations in their morphology. […] Heterogeneous behavior was not observed in the cells. […] Cell survival: Equal numbers of senescent cells were seeded in separate flasks and were treated with different concentrations of phloretamide. Cell numbers were determined by using a Coulter counter after trypsinization and resuspension of cells after 7 and 14 days of treatment.

[2] = test system: Fibroblast cells (SF25 p29); experiment: Lysosomal activity (Neutral Red Uptake assay); type: cell-based, human
Protocol: (§1) Test solution preparation: Stock solutions of 8 mM for the 3-p-hydroxyphenyl-propanoic acid amide were prepared by dissolving about 30 mg/ml in Hank's buffer to a final volume of 30 ml. In brief, the stock solutions were filter sterilized, stored at 4° C., and were used for experiments at their appropriate dilutions in cell culture media as required. Cell culture: All experiments were performed on mid- and late passage cultures of normal human adult skin fibroblast line, designated Senetek SNF25 (40-75% life span completed). In order to check the effects of test compounds on senescent cells, late passage cells with about 75% lifespan completed were used. SNF25 cell line was established from a mammary skin biopsy obtained from a young, non-smoking and healthy […] at the time of breast reduction operation. Normal culture conditions of medium (DMEM) containing antibiotics, 10% fetal calf serum, and incubation at 37° C., 5% CO2 with 95% humidity were used. The effects of the test chemicals were determined in the following conditions: Growth characteristics: Short-term growth experiments were performed using 24-well tissue culture plates (growth area 1.9 cm^2) and flat bottom 96 well plates (growth area 0.328 cm^2). Freshly prepared cell suspensions from mass cultures of SNF25 cells maintained in the lab were used. About 10,000 cells/well were seeded into 6 sets of 24-well plates. The cells were either allowed to attach and stabilize for 24 hours in normal culture medium or were directly added to the culture medium of a final concentration (range 40 μM to 500 μM). Culture medium was changed with the addition of test chemicals weekly. The numbers of cells were counted after different days of treatment in 2 wells from each concentration of the test chemical, by following the normal method of cell trypsinization and counting using a Coulter Counter. The third well in each category was fixed with cold methanol and stained with Giemsa stain for permanent record and for photography. The experiment was carried on until the cultures became fully confluent and no further growth was possible. Cell survival, toxicity and JC-1 staining: Cell survival after exposure to various doses was measured with the 3-(4,5 dimethylthiazol-2-yl)-2,5-diphenyltetrazolium bromide (MTT) assay. About 5,000 cells were seeded per well in a 96-well plate for 24 hours before the experiment. Cells were then treated with various doses of the compound to be tested. The wells were washed in Hank's and new medium was added. […] The absorbance was measured at 595 nm. […] The cultures were visually examined after 72 hours, and the number of viable cells and/or the total cell protein content determined, after 72 hours exposure, by the Neutral Red Uptake method. […]

[3] = test system: fibroblasts; experiment: Induction of cell proliferation (DNA synthesis, BrdU incorporation); type: cell-based, human; details: pre-treated fibroblasts
[4] = test system: human dermal fibroblasts (SNF25); experiment: Cell attachment of human skin fibroblasts; type: cell-based
Protocol: as §1, with “The cells were either allowed to attach and stabilize for 24 hours in normal culture medium or were directly added to the culture medium of a final concentration (range 40 μM to 500 μM). Culture medium was changed with the addition of test chemicals weekly.” left out, “The third well in each category was fixed with cold methanol and stained with Giemsa stain for permanent record and for photography. The experiment was carried on until the cultures became fully confluent and no further growth was possible.” left out, “assay.” for “assay. About 5,000 cells were seeded per well in a 96-well plate for 24 hours before the experiment. Cells were then treated with various doses of the compound to be tested. The wells were washed in Hank's and new medium was added.”

[5] = test system: human skin fibroblasts (SNF25 p 23); experiment: Short-term growth (one step growth curve, Coulter counting, Giemsa morphology); type: cell-based
Protocol: Test solution preparation: Stock solutions of 8 mM for the 3-p-hydroxyphenyl-propanoic acid amide were prepared by dissolving about 30 mg/ml in Hank's buffer to a final volume of 30 ml. In brief, the stock solutions were filter sterilized, stored at 4° C., and were used for experiments at their appropriate dilutions in cell culture media as required. Cell culture: All experiments were performed on mid- and late passage cultures of normal human adult skin fibroblast line, designated Senetek SNF25 (40-75% life span completed). In order to check the effects of test compounds on senescent cells, late passage cells with about 75% lifespan completed were used. SNF25 cell line was established from a mammary skin biopsy obtained from a young, non-smoking and healthy […] at the time of breast reduction operation. Normal culture conditions of medium (DMEM) containing antibiotics, 10% fetal calf serum, and incubation at 37° C., 5% CO2 with 95% humidity were used. The effects of the test chemicals were determined in the following conditions: Growth characteristics: Short-term growth experiments were performed using 24-well tissue culture plates (growth area 1.9 cm^2) and flat bottom 96 well plates (growth area 0.328 cm^2). Freshly prepared cell suspensions from mass cultures of SNF25 cells maintained in the lab were used. About 10,000 cells/well were seeded into 6 sets of 24-well plates. The cells were either allowed to attach and stabilize for 24 hours in normal culture medium or were directly added to the culture medium of a final concentration (range 40 μM to 500 μM). Culture medium was changed with the addition of test chemicals weekly. The numbers of cells were counted after different days of treatment in 2 wells from each concentration of the test chemical, by following the normal method of cell trypsinization and counting using a Coulter Counter. The third well in each category was fixed with cold methanol and stained with Giemsa stain for permanent record and for photography. The experiment was carried on until the cultures became fully confluent and no further growth was possible. Cell survival, toxicity and JC-1 staining: Cell survival after exposure to various doses was measured with the 3-(4,5 dimethylthiazol-2-yl)-2,5-diphenyltetrazolium bromide (MTT) assay. About 5,000 cells were seeded per well in a 96-well plate for 24 hours before the experiment. Cells were then treated with various doses of the compound to be tested. The wells were washed in Hank's and new medium was added. After three days, MTT (Sigma, M2128) was added at 0.5 mg/ml in medium. After 4 h, MTT was removed and isopropanol and HCl were added to dissolve the MTT crystals for 12-16 h. The absorbance was measured at 595 nm. Lysosomal activity: Neutral Red is preferentially taken up into the lysosomes of the cell. Fibroblast cells were maintained in culture and exposed to test compounds over a range of concentrations. The cultures were visually examined after 72 hours, and the number of viable cells and/or the total cell protein content determined, after 72 hours exposure, by the Neutral Red Uptake method. Individual wells of a 96-well tissue culture microtiter plate were inoculated with 0.2 ml of the appropriate media containing cells (usually 3×10^3 cells). After 1 day of incubation, the media were removed and replaced with unamended (control) medium or with medium amended with varied concentrations of the compound to be tested. […]

[6] = test system: Late passage human skin fibroblasts; experiment: Cytoskeletal organization and morphology of late passage cells; type: cell-based
Protocol: as §1, with “The cells were either allowed to attach and stabilize for 24 hours in normal culture medium or were directly added to the culture medium of a final concentration (range 40 μM to 500 μM). Culture medium was changed with the addition of test chemicals weekly.” left out, “The third well in each category was fixed with cold methanol and stained with Giemsa stain for permanent record and for photography. The experiment was carried on until the cultures became fully confluent and no further growth was possible.” left out, “assay.” for “assay. About 5,000 cells were seeded per well in a 96-well plate for 24 hours before the experiment. Cells were then treated with various doses of the compound to be tested. The wells were washed in Hank's and new medium was added.”

[7] = test system: middle aged dermal fibroblasts; experiment: Mitochondrial activity / cell survival (MTT assay); type: cell-based, human
Protocol: Test solution preparation: Stock solutions of 8 mM for the 3-p-hydroxyphenyl-propanoic acid amide were prepared by dissolving about 30 mg/ml in Hank's buffer to a final volume of 30 ml. In brief, the stock solutions were filter sterilized, stored at 4° C., and were used for experiments at their appropriate dilutions in cell culture media as required. Cell culture: All experiments were performed on mid- and late passage cultures of normal human adult skin fibroblast line, designated Senetek SNF25 (40-75% life span completed). In order to check the effects of test compounds on senescent cells, late passage cells with about 75% lifespan completed were used. […] The effects of the test chemicals were determined in the following conditions: Growth characteristics: Short-term growth experiments were performed using 24-well tissue culture plates (growth area 1.9 cm^2) and flat bottom 96 well plates (growth area 0.328 cm^2). […] The numbers of cells were counted after different days of treatment in 2 wells from each concentration of the test chemical, by following the normal method of cell trypsinization and counting using a Coulter Counter. […] Cell survival, toxicity and JC-1 staining: Cell survival after exposure to various doses was measured with the 3-(4,5 dimethylthiazol-2-yl)-2,5-diphenyltetrazolium bromide (MTT) assay. […] The absorbance was measured at 595 nm. […]

[8] = test system: SNF25 p 44 cells; experiment: JC-1 staining of mitochondrial potential by fluorescence microscopy; type: cell-based, human; details: pre-treatment for 3 days, all doses
Protocol: FIG. 3 presents the localization of JC-1 in SNF25 p44 cells using phloretamide by fluorescence microscopy.
Localization of JC-1 in SNF25 p 44 cells using phloretamide by fluorescence microscopy is shown on FIG. 3.
Staining for JC-1 was performed after phloretamide pre-treatment on dermal fibroblasts for a period of 3 days to see the mitochondrial potential.

- appearance (morphology) of cells ([5]; at higher doses, after 11 days of treatment (FIG. 2 E)): larger, irregularly arranged and sparse
Compound: NC(=O)CCc1ccc(O)cc1 [phloretamide, 3-(4-hydroxyphenyl)propanoic acid amide]
- numbers of surviving late passage cells ([1]; after one and two weeks): almost similar without much difference
- cell growth of late passage cells ([1]; at higher doses, after 7 and 14 of treatment): dose dependent reduction
- staining pattern of the cells (lysosomal staining) ([2]; 40 μM and 80 μM, FIG. 4): showed autophagy
- decrease in the lysosomal autophagy ([2]; dose range of 40 μM and 80 μM): 15-40%
- lysosomal rate compared to the untreated ([2]; up to 200 μM, 72 hours exposure): decreased in a dose dependent manner
- lysosomal activity ([2]; upwards of 40 μM): decrease in lysosomal activity was observed
- DNA synthesis in comparison to the controls [3]: no significant differences
- percentage of cells attached to the surface of the culture flask ([4]; after six hours of treatment, 40 11 M to 2 mM): not affected to any significant extent
- improved / enhanced cell attachment ([4]; at 40 μM and 80 μM): 20-30% and 10-20%
- immediate toxicity to human dermal fibroblasts ([4]; six hours of treatment): not immediately toxic
- inhibition at 500 µM ([5]; Homo sapiens, Skin fibroblast, 264 h, higher concentrations (500 μM), 11 days, read-out: inhibition of cellular growth): > 50%
- increase in cell numbers ([5]; after 11 days of treatment, 40 μM to 200 μM): 10-20%
- doses at which cytotoxicity of cells was seen ([5]; after 11 days of treatment, morphology): greater than 200 μM
- stimulation of cell growth ([5]; at 40 μM and 80 μM, one step growth curve, up to 11 days): stimulation of cell growth
- improvement in the late passage cells ([6]; after 14 days of treatment): couldn't find an improvement
- appearance (morphology) of late passage cells ([6]; after seven and fourteen days of treatment, about 75% life span completed): subtle differences
- actin staining pattern, treated versus untreated cells ([6]; middle-aged cells after 3 days): no obvious differences
- effects on the activity of mitochondria ([7]; until a dose of 500 μM, 3 days, MTT): no negative effects
- induction of cell growth ([7]; within the tested range of doses (0, 01 μM-500 μM)): no induction of cell growth
- JC-1 staining (mitochondrial potential) [8]: polarized mitochondria
- JC-1 staining (mitochondrial potential) ([8]; listed as 3-p-hydroxyphenyl-propionic acid amide): Punctate orange-red fluorescent staining was observed
